From patent US9173840B2, “Multifunctional self-assembling polymeric nanosystems” (Northeastern University, priority 2008, dated 2015) come the findings set out here.

One test deals with PARP. The test can be described thus: Cellular apoptosis assay: cleavage of PARP by Western blot. The format is cell-based, human. To be noted: KHOS and KHOSR2. For orientation: Immunoblotting shows a protein as a band on a membrane.
Test [1] relates to KHOSR2 cells. The test can be described thus: Fluorescence microscopy of cellular doxorubicin uptake. The format is cell-based, human. The note with it: 3 hr incubation. The method, then:
For cellular uptake studies, KHOS and KHOSR2 cells were seeded at densities of 5×10^5 cells/well in 6 well plates. MDR1 siRNA was applied to a well of KHOSR2 and incubated for 48 h. Following the incubation, doxorubicin was added to each well and was incubated for additional 3 hr. After incubation, the cells were washed, suspended in fresh RPMI 1640, then visualized on a Nikon Eclipse Ti-U fluorescence microscope equipped with a SPOT RT digital camera (Diagnostic Instruments, Inc., Sterling Heights, Mich.). Fluorescence intensity and cellular localization was analyzed at a wavelength of 488 nm in triplicate in random, different fields.
Cellular uptake studies were based on the fluorescence microscopic procedures of Venne et al. (Cancer Res. 56:3626-3629 (1996)). KHOS and KHOSR2 cells were seeded at densities of 5×10^5 cells/well in 6 well plates and incubated for 24 hr to allow cell attachment. […] After incubation, the cells were washed and resuspended with PBS and were then visualized on a Nikon Eclipse Ti-U fluorescence microscope (Nikon Corp.) equipped with a SPOT RT digital camera (Diagnostic Instruments, Inc., Sterling Heights, Mich.). Fluorescence intensity and cellular localization was analyzed at a wavelength of 488 nm in triplicate different fields at random.

Another test concerns U-2OSR2 cells. The test can be described thus: In vitro cytotoxicity MTT assay, U-2OSR2. To be noted: Homo sapiens. The format is cell-based.
Another test deals with U-2OS cells. The test can be described thus: In vitro cytotoxicity MTT assay, U-2OS. The note with it: Homo sapiens, U2OS, read-out: IC50 anti-proliferative activity. Background: Tetrazolium assays rely on reduction of a dye to a coloured formazan, in cell work by metabolically active cells.
For test [2], the system named is KHOSR2 cells. The test can be described thus: In vitro cytotoxicity MTT assay, KHOSR2. To be noted: Homo sapiens.

Read-outs that look alike come from different tables or passages of the source.

Source text for PARP: Whole-cell lysates were immunoblotted with specific antibodies to PARP (Cell Signaling Technology) and its cleavage products. Positive immunoreactions were detected using Super Signal® West Pico Chemiluminescent Substrate. Bands were semiquantified by reverse image scanning densitometry with PhotoShop 7.0 (Adobe, San Jose, Calif.). An area of the gel image that was devoid of signal was assigned to be the background value. Each band of the protein representing cleaved PARP from KHOS or KHOSR2 treated with either doxorubicin, alone, or nanoparticle-loaded with doxorubicin at various concentrations, were analyzed for the density beyond background level. To ensure that the loading of the protein was equal and differences were not being observed because of one specimen having more protein than another, the band corresponding to β-actin was determined for each protein. The density of the protein band was normalized to the β-actin band for the protein and the ratio of the cleaved PARP was normalized by dividing by the ratio of the actin corresponding to each cleaved PARP.

On to `COc1cccc2c1C(=O)c1c(O)c3c(c(O)c1C2=O)C[C@@](O)(C(=O)CO)C[C@@H]3O[C@H]1C[C@H](N)[C@H](O)[C@H](C)O1` [doxorubicin], for which, in the test with PARP, the “cleavage of PARP / apoptosis induction” value is listed as “higher concentrations of doxorubicin, alone, induced apoptosis”. Further, the “subcellular distribution of doxorubicin fluorescence” value in the test with KHOSR2 cells [1] (drug-resistant cell line, Example 2) is reported as “primarily concentrated in the cytoplasm”. Besides, the “subcellular distribution of doxorubicin fluorescence, free doxorubicin” value in the test on KHOSR2 cells [1] (drug-resistant osteosarcoma cells) is “primarily concentrated in the cytoplasm”. Besides, the IC50 in the test on U-2OSR2 cells (U-2OSR2, Example 1, nanoparticles loaded with 100 nM MDR1 siRNA, read-out: IC50 for doxorubicin co-treated with the MDR1 siRNA-loaded nanoparticles) came out at 60 nM; with U-2OSR2 cells (U-2OSR2, Example 1, read-out: IC50 for doxorubicin, alone) it was 6000 nM; with U-2OSR2 cells (U-2OSR2, Example 2, FIG. 17D, read-out: IC50 anti-proliferative activity), 6000 nM; in the test on U-2OS cells, 300 nM; in the test with KHOSR2 cells [2] (MDR1, read-out: IC50 of doxorubicin co-treated with MDR1 siRNA-loaded nanoparticles), 100 nM; with KHOSR2 cells [2] (read-out: IC50 anti-proliferative activity), 3000 nM. Also, in the test on KHOSR2 cells [2] (read-out: IC50 of doxorubicin, alone), the IC50 turned out to be 10000 nM.

As usually defined, the IC50 is the concentration that gives 50% inhibition.
